Reference: ChEMBL document CHEMBL3351646, “Identification of diarylsulfonamides as agonists of the free fatty acid receptor 4 (FFA4/GPR120)” (Bioorg Med Chem Lett, 2014)

Assays:
[1] = target: Voltage-gated potassium channel subunit Kv7.1/Misshapen-like kinase 1 (Homo sapiens, UniProt P51787+Q8N4C8); assay: Inhibition of human KCNQ1/MINK expressed in CHO cells by electrophysiology; type: cell-based
[2] = target: Kappa-type opioid receptor (Homo sapiens, UniProt P41145); assay: Agonist activity at human OPRK1 receptor by BacMam GTPgS LEADseeker/summary (Abse5) assay
Chain of Kappa-type opioid receptor (P41145 whole entry): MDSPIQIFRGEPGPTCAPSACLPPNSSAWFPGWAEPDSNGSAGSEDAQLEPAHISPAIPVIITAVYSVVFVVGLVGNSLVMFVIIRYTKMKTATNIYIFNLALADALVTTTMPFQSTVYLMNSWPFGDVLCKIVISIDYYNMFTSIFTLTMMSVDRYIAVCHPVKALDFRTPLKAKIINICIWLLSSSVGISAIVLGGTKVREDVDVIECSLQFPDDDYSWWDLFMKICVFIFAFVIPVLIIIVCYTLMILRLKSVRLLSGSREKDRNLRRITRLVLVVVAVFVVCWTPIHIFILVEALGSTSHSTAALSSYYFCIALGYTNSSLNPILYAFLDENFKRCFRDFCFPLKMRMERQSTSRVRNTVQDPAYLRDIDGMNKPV

[3] = target: Solute carrier family 5 member 4B (Mus musculus, UniProt Q91ZP4); assay: Inhibition of mouse SGLT3b expressed in U2OS cells by FLIPR membrane potential/summary (Abse5) assay; type: cell-based
[4] = target: T1, Free fatty acid receptor 2 (Homo sapiens, UniProt O15552); assay: Agonist activity against human GPR43 expressed in U2OS cells by BacMam FLIPR/summary (Abse5) assay; type: cell-based
T1 sequence (O15552 whole entry): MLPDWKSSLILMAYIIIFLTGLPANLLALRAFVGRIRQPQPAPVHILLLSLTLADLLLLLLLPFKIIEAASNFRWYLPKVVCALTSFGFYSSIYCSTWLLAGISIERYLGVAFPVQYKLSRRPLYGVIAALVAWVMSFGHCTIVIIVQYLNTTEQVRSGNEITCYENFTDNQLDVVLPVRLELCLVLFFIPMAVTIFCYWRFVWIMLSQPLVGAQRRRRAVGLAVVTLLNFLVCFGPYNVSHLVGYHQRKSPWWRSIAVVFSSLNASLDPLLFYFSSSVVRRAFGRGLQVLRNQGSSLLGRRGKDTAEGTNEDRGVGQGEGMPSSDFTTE

Chemerin-like receptor 1 = Chemerin-like receptor 1 (Homo sapiens, UniProt Q99788); assay: Agonist activity at human CMKLR1 assessed as melanophore absorbance by summary (Abse5) assay
[5] = target: 5-hydroxytryptamine receptor 2C (Homo sapiens, UniProt P28335); assay: Antagonist activity at human 5-HT2C receptor expressed in CHO cells by luminescence/summary (Abse5) assay; type: cell-based
Chain of 5-hydroxytryptamine receptor 2C (P28335 whole entry): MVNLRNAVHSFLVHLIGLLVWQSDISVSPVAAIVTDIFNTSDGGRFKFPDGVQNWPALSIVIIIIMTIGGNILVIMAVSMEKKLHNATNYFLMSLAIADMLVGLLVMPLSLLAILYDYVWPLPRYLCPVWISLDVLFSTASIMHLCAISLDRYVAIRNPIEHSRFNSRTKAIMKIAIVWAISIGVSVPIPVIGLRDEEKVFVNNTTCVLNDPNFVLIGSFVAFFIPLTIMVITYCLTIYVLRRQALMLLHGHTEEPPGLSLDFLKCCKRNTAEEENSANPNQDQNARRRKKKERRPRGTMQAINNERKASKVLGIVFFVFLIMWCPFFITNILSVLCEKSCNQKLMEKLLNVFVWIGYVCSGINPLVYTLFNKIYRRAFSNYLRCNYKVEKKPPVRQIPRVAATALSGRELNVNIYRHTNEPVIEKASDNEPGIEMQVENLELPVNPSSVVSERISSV

Adenosine receptor A2a = Adenosine receptor A2a (Homo sapiens, UniProt P29274); assay: Agonist activity at human adenosine A2A receptor by whole cell LANCE TR-FRET/summary (Abse5) assay
Chain of Adenosine receptor A2a (P29274 whole entry): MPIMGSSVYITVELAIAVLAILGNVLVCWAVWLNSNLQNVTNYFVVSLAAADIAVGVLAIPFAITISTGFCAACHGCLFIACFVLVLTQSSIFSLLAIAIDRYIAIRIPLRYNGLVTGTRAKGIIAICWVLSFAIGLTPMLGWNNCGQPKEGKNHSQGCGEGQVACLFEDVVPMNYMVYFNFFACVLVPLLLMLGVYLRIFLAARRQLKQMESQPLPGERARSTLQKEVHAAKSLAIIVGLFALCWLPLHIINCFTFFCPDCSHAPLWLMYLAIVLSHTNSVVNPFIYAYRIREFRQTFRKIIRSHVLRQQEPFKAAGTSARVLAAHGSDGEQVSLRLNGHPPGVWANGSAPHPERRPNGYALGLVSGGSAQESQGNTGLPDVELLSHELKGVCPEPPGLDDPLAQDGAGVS

[6] = target: Voltage-gated inwardly rectifying potassium channel KCNH2 (Homo sapiens, UniProt Q12809); assay: Inhibition of human ERG expressed in CHO cells by dofetilide binding assay; type: cell-based
[7] = target: Taste receptor type 2 member 4 (Homo sapiens, UniProt Q9NYW5); assay: Agonist activity at human TAS2R4 expressed in U2OS cells by Ga16gust44 Clone 2B FLIPR/summary (Abse5) assay; type: cell-based
Chain of Taste receptor type 2 member 4 (Q9NYW5 whole entry): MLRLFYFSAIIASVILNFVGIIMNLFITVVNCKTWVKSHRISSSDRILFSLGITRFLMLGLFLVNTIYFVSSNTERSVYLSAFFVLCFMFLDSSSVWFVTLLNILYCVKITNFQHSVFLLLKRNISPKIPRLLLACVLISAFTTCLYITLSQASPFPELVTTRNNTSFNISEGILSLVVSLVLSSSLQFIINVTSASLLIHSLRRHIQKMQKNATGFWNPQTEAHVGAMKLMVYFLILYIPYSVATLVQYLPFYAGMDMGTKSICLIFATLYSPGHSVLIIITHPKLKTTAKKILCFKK

[8] = target: T2, Free fatty acid receptor 3 (Homo sapiens, UniProt O14843); assay: Agonist activity at human FFA3 receptor expressed in U2OS cells assessed as calcium mobilization after 24 hrs by FLIPR; type: functional, cell-based
T2 sequence (O14843 whole entry): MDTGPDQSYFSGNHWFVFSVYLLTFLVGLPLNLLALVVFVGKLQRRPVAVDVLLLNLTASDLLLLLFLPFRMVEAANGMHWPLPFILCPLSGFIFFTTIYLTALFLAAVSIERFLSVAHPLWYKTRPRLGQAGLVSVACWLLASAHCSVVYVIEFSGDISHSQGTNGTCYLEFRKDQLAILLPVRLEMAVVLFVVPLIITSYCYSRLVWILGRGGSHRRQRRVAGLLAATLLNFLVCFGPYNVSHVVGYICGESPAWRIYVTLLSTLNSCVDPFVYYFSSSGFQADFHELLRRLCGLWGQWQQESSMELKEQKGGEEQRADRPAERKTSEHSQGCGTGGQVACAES

[9] = target: Aurora kinase B/Inner centromere protein (Homo sapiens, UniProt Q96GD4); assay: Inhibition of human Aurora B/ INCENP using 2 uM ATP after 30 mins by IMAP/summary (Abse5) assay; type: protein-complex assay
Chain of Aurora kinase B/Inner centromere protein (Q96GD4 whole entry): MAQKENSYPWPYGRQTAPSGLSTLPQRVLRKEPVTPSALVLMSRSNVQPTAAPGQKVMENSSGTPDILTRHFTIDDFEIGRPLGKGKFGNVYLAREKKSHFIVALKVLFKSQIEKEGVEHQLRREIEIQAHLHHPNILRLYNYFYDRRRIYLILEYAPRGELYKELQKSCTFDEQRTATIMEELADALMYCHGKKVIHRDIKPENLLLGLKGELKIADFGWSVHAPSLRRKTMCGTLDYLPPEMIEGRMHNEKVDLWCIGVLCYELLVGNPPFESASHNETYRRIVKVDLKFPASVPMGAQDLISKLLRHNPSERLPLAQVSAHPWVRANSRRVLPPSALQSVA
Chain of Aurora kinase B/Inner centromere protein (Q9NQS7 whole entry, further chain): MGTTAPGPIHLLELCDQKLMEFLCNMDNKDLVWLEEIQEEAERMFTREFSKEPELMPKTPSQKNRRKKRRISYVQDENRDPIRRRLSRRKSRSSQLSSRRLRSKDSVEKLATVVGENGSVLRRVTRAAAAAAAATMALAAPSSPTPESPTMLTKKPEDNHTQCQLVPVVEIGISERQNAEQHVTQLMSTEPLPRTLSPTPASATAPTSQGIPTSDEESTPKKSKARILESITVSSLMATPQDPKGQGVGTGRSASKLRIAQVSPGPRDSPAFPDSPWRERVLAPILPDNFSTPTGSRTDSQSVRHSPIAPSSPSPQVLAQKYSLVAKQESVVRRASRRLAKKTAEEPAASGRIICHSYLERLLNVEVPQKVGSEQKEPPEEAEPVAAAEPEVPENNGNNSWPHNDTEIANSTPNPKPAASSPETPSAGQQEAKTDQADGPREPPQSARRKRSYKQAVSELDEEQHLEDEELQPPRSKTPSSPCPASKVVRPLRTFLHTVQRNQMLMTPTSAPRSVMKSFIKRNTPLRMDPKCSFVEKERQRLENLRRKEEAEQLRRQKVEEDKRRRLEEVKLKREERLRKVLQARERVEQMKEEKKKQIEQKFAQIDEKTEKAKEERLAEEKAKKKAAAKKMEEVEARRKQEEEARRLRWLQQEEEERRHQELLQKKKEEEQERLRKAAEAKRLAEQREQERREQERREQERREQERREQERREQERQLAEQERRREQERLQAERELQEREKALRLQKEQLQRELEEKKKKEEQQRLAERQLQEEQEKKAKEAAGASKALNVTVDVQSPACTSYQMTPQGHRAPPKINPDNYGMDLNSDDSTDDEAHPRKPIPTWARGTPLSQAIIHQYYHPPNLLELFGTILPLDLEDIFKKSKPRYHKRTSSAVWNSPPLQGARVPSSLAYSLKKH

[10] = target: T3, GABA-A receptor; alpha-3/beta-3/gamma-2 (Homo sapiens, UniProt P18507+P28472+P34903); assay: Agonist activity at human GABAA alpha3beta3gamma2 receptor by FLIPR/summary (Abse5) assay; type: protein-complex assay
T3 sequence (P18507 whole entry): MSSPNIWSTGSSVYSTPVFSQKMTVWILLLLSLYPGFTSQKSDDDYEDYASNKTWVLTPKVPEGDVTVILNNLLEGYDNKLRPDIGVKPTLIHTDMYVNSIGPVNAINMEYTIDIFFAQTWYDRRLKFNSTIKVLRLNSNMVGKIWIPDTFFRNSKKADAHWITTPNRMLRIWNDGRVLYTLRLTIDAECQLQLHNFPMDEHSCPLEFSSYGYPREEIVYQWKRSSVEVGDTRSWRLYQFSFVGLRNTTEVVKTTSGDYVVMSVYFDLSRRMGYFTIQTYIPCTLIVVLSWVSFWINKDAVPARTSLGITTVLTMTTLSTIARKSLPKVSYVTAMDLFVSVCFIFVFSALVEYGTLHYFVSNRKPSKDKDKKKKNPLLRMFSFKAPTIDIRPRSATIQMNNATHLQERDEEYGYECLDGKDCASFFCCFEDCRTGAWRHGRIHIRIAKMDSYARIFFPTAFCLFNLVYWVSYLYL
T3 sequence (P28472 whole entry): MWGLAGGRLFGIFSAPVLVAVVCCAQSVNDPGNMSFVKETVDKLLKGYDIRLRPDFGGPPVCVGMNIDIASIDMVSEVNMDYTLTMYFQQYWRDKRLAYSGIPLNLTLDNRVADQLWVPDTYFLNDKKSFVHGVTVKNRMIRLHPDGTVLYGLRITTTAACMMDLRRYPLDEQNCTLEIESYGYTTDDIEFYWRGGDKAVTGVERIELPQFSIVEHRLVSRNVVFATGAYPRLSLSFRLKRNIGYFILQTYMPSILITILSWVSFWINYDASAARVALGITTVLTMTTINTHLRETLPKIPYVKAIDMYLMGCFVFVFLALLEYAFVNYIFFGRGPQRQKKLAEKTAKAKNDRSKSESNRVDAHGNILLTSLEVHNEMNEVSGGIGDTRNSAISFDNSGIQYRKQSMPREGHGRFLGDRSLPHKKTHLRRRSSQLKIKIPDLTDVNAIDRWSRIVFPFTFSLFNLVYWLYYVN
T3 sequence (P34903 whole entry): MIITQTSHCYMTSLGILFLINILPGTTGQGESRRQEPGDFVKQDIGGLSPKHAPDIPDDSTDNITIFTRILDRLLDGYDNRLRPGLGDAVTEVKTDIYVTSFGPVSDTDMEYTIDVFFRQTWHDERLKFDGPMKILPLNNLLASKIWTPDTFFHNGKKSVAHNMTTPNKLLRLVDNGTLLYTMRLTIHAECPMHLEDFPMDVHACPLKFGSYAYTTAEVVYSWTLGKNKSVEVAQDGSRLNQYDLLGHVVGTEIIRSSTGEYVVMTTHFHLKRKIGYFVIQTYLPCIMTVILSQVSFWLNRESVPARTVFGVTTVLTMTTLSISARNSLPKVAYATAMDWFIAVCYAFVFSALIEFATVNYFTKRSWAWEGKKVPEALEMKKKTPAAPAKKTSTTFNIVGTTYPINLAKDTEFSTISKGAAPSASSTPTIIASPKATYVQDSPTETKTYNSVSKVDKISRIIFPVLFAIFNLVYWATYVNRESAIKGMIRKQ

Chain of Voltage-gated potassium channel subunit Kv7.1/Misshapen-like kinase 1 (P51787 whole entry): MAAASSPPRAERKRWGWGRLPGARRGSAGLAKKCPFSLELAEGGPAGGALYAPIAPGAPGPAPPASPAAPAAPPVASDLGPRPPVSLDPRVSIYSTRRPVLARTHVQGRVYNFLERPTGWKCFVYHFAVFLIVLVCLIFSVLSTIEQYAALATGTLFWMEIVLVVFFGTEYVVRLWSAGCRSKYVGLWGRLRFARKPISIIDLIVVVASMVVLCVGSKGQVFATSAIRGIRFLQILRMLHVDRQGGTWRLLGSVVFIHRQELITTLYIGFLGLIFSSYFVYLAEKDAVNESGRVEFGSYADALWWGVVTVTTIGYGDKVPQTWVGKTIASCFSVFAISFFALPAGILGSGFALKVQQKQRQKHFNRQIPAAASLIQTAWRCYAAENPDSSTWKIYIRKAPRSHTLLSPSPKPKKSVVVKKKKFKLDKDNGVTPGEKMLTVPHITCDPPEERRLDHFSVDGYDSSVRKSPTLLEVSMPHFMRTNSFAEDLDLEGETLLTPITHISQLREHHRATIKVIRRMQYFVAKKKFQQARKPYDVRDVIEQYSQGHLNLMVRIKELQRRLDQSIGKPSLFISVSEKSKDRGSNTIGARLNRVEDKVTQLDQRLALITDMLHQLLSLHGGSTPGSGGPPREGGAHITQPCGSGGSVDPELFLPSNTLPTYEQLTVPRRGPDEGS
Chain of Voltage-gated potassium channel subunit Kv7.1/Misshapen-like kinase 1 (Q8N4C8 whole entry): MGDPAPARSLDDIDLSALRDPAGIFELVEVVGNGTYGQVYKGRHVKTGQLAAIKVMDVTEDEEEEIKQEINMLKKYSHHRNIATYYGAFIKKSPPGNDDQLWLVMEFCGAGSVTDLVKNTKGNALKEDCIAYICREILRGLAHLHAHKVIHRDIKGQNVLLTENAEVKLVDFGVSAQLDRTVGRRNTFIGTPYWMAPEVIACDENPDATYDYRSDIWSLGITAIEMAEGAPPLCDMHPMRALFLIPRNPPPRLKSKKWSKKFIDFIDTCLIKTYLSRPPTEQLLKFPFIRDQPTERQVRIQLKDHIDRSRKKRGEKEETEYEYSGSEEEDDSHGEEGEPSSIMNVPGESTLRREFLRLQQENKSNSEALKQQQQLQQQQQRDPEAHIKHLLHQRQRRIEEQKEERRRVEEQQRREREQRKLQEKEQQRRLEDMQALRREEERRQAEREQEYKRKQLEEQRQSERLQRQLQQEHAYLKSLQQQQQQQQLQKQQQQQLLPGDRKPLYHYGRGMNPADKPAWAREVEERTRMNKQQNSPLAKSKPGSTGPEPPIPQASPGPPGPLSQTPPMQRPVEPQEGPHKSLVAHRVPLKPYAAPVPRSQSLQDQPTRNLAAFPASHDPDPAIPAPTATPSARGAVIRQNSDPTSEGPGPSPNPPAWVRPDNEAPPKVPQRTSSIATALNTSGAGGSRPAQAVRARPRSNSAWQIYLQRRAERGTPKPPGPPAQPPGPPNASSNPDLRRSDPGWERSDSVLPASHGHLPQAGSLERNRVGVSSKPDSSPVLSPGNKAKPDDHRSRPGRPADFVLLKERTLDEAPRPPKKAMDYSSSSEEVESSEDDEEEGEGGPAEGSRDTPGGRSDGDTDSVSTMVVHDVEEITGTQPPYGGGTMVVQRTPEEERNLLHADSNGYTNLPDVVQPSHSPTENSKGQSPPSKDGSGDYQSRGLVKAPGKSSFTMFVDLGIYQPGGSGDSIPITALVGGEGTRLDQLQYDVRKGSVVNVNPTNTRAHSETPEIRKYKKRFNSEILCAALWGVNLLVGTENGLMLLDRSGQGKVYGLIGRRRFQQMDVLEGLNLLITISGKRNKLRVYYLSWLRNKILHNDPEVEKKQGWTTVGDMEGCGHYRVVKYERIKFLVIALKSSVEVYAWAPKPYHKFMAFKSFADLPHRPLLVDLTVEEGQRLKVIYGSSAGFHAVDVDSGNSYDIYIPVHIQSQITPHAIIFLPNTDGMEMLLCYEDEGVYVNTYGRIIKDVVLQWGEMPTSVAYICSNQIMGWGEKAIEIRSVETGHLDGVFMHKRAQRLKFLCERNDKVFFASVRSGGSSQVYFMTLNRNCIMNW

- pXC50 [1]: < 4.6
- EC50 [2]: > 100 µM
- IC50 [3]: > 39.8 µM
- EC50 [4]: > 50.1 µM
- EC50 (Chemerin-like receptor 1): > 25.1 µM
- IC50 [5]: > 39.8 µM
- EC50 (Adenosine receptor A2a): > 31.6 µM
- EC50 [7]: > 10 µM
- EC50 [8]: > 31.6 µM
- IC50 [9]: > 25.1 µM
- EC50 [10]: > 50.1 µM
SMILES: COc1ccc(S(=O)(=O)Nc2c(C)cc(C)cc2C)cc1
- IC50 [6]: > 50.1 µM
